Test results reported in article PMC5623904, “Structural investigation of nucleophosmin interaction with the tumor suppressor Fbw7γ” (Oncogenesis, 2017).

Tests used:
Format in all cases: binding
[1] = biological target: T1, Nter-NPM1 (residues 16-123) (Homo sapiens, UniProt P06748); assay: Equilibrium fluorescence titration of dansylated peptide with Nter-NPM1; conditions: for Nter-NPM1 KD: wild-type Nter-NPM1, N-terminally dansylated peptide 5 μM, protein 0 to 200/400 μM, sodium phosphate 20 mM pH 7.2, 25 °C, fluorescence ex 330 nm, triplicate, ±s.d., Ni = no interaction
T1 construct: inferred from pET28a NdeI/BamHI cloning and HisTrap purification) (N); made in house; host or cells: Escherichia coli BL21(DE3)
T1 sequence (P06748 16-123): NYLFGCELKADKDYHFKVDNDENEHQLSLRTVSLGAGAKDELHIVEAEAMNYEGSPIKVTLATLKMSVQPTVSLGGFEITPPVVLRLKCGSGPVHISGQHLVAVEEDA
Description: (§1) All experiments were performed at 25 °C in sodium phosphate buffer 20 mM pH 7.2, or in sodium phosphate buffer 20 mM plus 100 mM NaCl pH 7.2 (which sets ionic strength to 150 mM), using a FluoroMax-4 spectrofluorometer (Jobin Yvon, Edison, NJ, USA), equipped with a water bath apparatus. Fbw7γ and CENP-W peptides, functionalized with a dansyl (5-dimetilamminonaftalen-1-sulphonyl) group at their N terminus, were purchased from JPT (Germany). Tat peptide was synthesized employing the solid phase method following standard Fmoc strategies and labeled with dansyl fluorophore at its N terminus. Crude product was purified by RP-HPLC applying a linear gradient of 0.1% TFA CH3CN in 0.1% TFA water from 5% to 65% over 12 min using a semi-preparative 2.2 × 5 cm C18 column at a flow rate of 20 ml/min. Purity and identity were confirmed by LC–MS analysis.
(§2) Titration experiments were conducted with an excitation wavelength of 330 nm while the fluorescence emission spectra were collected in the range between 350 and 650 nm. Titrations were performed at constant peptide concentration (5 μM) and varying protein concentrations (from 0 to 200/400 μM). Titrations were performed in triplicate and data, analyzed with the Graphpad Prism software (https://www.graphpad.com/scientific-software/prism/), were reported as dissociation constant±s.d.
(§3) Equilibrium binding curves were fitted to the standard quadratic equation: […]
(§4) where F is the observed fluorescence signal, n and [A]0 are the total concentration of non-varied and varied species, respectively, and KD is the equilibrium dissociation constant. B and C are constants taking into account the total fluorescence change and fluorescence at [A]0=0, respectively, and k is a term describing the slope of the curve at high protein concentration. Whenever possible, under pseudo first-order conditions, the equation 1 was simplified to: […]

[2] = biological target: T2, Nter-NPM1 D36A-E37A-E39A-E93A (Homo sapiens, UniProt P06748, D36A/E37A/E39A/E93A); assay: Equilibrium fluorescence titration, Nter-NPM1 quadruple mutant (E37A); conditions: dansylated peptide 5 μM; sodium phosphate 20 mM pH 7.2, 25 °C; triplicate, ±s.d.; read-out: KD, D36A-E37A-E39A-E93A
T2 construct: inferred from pET28a NdeI/BamHI cloning and HisTrap purification) (N); made in house; host or cells: Escherichia coli BL21(DE3)
T2 sequence (P06748 16-123 D36A/E37A/E39A/E93A): as the sequence (P06748 16-123) above, with D21A, E22A, E24A, E78A counted along it
Description: (§5) Nter-NPM1 mutants were obtained by site-directed mutagenesis using the Quickchange II Lightning Site-Directed Mutagenesis kit (Stratagene, La Jolla, CA, USA), following manufacturer’s instructions. Oligonucleotides used for PCR were obtained from Primm Biotech (Milan, Italy). Forward oligonucleotides used are reported in Supplementary Table 2.
as §1, §2, §3, §4

[3] = biological target: T3, Nter-NPM1 D36A-E37A-E39A-E93A-E121A (Homo sapiens, UniProt P06748, D36A/E121A/E37A/E39A/E93A); assay: Equilibrium fluorescence titration, Nter-NPM1 quintuple mutant; conditions: dansylated peptide 5 μM; sodium phosphate 20 mM pH 7.2, 25 °C; triplicate, ±s.d.
T3 construct: inferred from pET28a NdeI/BamHI cloning and HisTrap purification) (N); made in house; host or cells: Escherichia coli BL21(DE3)
T3 sequence (P06748 16-123 D36A/E37A/E39A/E93A/E121A): as the sequence (P06748 16-123) above, with D21A, E22A, E24A, E78A, E106A counted along it
Description: as §5, §1, §2, §3, §4

[4] = biological target: T4, Nter-NPM1 D36A-E39A-E93A-E121A (Homo sapiens, UniProt P06748, D36A/E121A/E39A/E93A); assay: Equilibrium fluorescence titration, Nter-NPM1 quadruple mutant (E121A); conditions: dansylated peptide 5 μM; sodium phosphate 20 mM pH 7.2, 25 °C; triplicate, ±s.d.
T4 construct: inferred from pET28a NdeI/BamHI cloning and HisTrap purification) (N); made in house; host or cells: Escherichia coli BL21(DE3)
T4 sequence (P06748 16-123 D36A/E39A/E93A/E121A): as the sequence (P06748 16-123) above, with D21A, E24A, E78A, E106A counted along it
Description: as §5, §1
as §2, with “constant±s.d. […]” for “constant±s.d.”
as §4, with “concentration.” for “concentration. Whenever possible, under pseudo first-order conditions, the equation 1 was simplified to:”

Nter-NPM1 D36A-E39A-E93A = biological target: T5, Nter-NPM1 D36A-E39A-E93A (Homo sapiens, UniProt P06748, D36A/E39A/E93A); assay: Equilibrium fluorescence titration, Nter-NPM1 triple mutant; conditions: dansylated peptide 5 μM; sodium phosphate 20 mM pH 7.2, 25 °C; triplicate, ±s.d.; read-out: KD, D36A-E39A-E93A
T5 construct: inferred from pET28a NdeI/BamHI cloning and HisTrap purification) (N); made in house; host or cells: Escherichia coli BL21(DE3)
T5 sequence (P06748 16-123 D36A/E39A/E93A): as the sequence (P06748 16-123) above, with D21A, E24A, E78A counted along it
Description: as §5, §1, §2, §3, §4

Nter-NPM1 KD [1]	Nter-NPM1 KD ([1]; listed as unrelated short)	Nter-NPM1 KD ([1]; listed as unrelated long)	Molecule	Kd [2] [µM]	Kd [3] [µM]	Kd [4] [µM]	Kd ([1]; SD, read-out: Nter-NPM1 KD) [µM]	Kd (Nter-NPM1 D36A-E39A-E93A) [µM]
Ni	No interaction	–	VLSQK [Unreleted short, reference compound]	–	–	–	–	–
–	–	–	C[C@H](NS(=O)(=O)c1cccc2c(N(C)C)cccc12)C(=O)NCC(=O)N[C@@H](CCCNC(=N)N)C(=O)N[C@@H](CCCCN)C(=O)N[C@@H](CCCCN)C(=O)N[C@@H](CCCNC(=N)N)C(=O)N[C@@H](CCCNC(=N)N)C(=O)N[C@@H](CCC(N)=O)C(=O)N[C@@H](CCCNC(=N)N)C(=O)N[C@@H](CCCNC(=N)N)C(=O)N[C@@H](CCCNC(=N)N)C(=O)N1CCC[C@H]1C(=O)N1CCC[C@H]1C(=O)N[C@@H](CCC(N)=O)C(=O)O [Tat*]	57.4 ± 7	643 ± 70.8	63.8 ± 5	2.4 ± 0.5	11.1 ± 2.1
Ni	–	No interaction	DDEAQTLAKFVLSQK [Unrelated long, reference compound]	–	–	–	–	–
